Data as given in ChEMBL document CHEMBL1201862, “PubChem BioAssay data set” (2004).
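Exposure lasted 48 hours, with cells grown in 96-well plates and compounds tested at five concentrations. At the GI50, growth is halved.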 Calls of active or inactive are those of the source. Rule as the data show it: active = GI50 up to about 1.1 µM and inactive = higher.

What was measured:
Assay in all cases: NCI anticancer screen, dose series, 48 h
[1] = system: MCF7
[2] = system: MDA-MB-435
[3] = system: SK-OV-3
[4] = system: SNB-75
[5] = system: HT-29
[6] = system: SN12C
[7] = system: NCI-H460
[8] = system: A549
[9] = system: U-251
[10] = system: OVCAR-5
[11] = system: NCI/ADR-RES
[12] = system: DU-145
[13] = system: MDA-N
[14] = system: SF-539
[15] = system: SW-620
[16] = system: M14
[17] = system: SK-MEL-5
[18] = system: BT-549
[19] = system: HCT-116
[20] = system: RPMI-8226

Measured: GI50

COc1cc2c3cc1Oc1c(OC)c(OC)cc4c1C(Cc1ccc(O)c(c1)Oc1ccc(cc1)CC3N(C)CC2)N(C)CC4 (configuration not stated)
inactive: [1] 45.9 µM | [2] > 10 µM | [3] 29.6 µM | [4] 23.3 µM | [5] 31.3 µM | [6] 19.1 µM | [7] 15.7 µM | [8] 26.3 µM | [9] 21.4 µM | [10] 39.7 µM | [11] 31.5 µM | [12] 37.8 µM | [13] 21.7 µM | [14] 24.8 µM | [15] 69.8 µM | [16] 33.7 µM | [17] 20 µM | [18] 23.1 µM | [19] 45.3 µM

CN1CCc2ccccc2C1Cc1ccccc1NC(=O)c1sc2ccccc2c1Cl (configuration not stated)
inactive: [1] > 100 µM | [2] > 100 µM | [3] > 100 µM | [4] > 100 µM | [6] > 100 µM | [7] > 100 µM | [20] > 100 µM | [8] > 100 µM | [9] > 100 µM | [11] > 100 µM | [12] > 100 µM | [13] > 100 µM | [14] > 100 µM | [15] > 100 µM | [16] > 100 µM | [17] > 100 µM | [18] > 100 µM | [19] > 100 µM

NC(=O)C(N)Cc1ccc(O)cn1 (configuration not stated)
inactive: [1] > 100 µM | [2] > 100 µM | [4] > 100 µM | [5] > 100 µM | [6] > 100 µM | [7] > 100 µM | [20] > 100 µM | [8] > 100 µM | [9] > 100 µM | [10] > 100 µM | [11] > 100 µM | [12] > 100 µM | [13] > 100 µM | [14] > 100 µM | [15] > 100 µM | [17] > 100 µM | [18] > 100 µM | [19] > 100 µM

N#CC(C#N)=C1c2ccccc2C(=NN)c2ccccc21
inactive: [1] > 100 µM | [2] > 100 µM | [3] > 100 µM | [4] > 43.9 µM | [5] > 100 µM | [6] > 100 µM | [20] > 100 µM | [9] 37.3 µM | [10] > 100 µM | [11] > 100 µM | [12] 5.25 µM | [13] > 100 µM | [14] > 56.1 µM | [15] > 100 µM | [16] 88.1 µM | [17] 14.8 µM | [18] > 100 µM

CN(CCNC(=O)c1cn(C)c2c1ccc1cc(Cl)ccc12)CCNC(=O)c1cn(C)c2c1ccc1cc(Cl)ccc12
inactive: [1] 1.86 µM | [2] 1.44 µM | [3] 1.56 µM | [4] 1.68 µM | [5] 1.93 µM | [6] 1.78 µM | [7] 3.24 µM | [8] 1.92 µM | [9] 7.59 µM | [10] 1.97 µM | [11] 2.05 µM | [12] 1.73 µM | [13] 1.95 µM | [14] 4.78 µM | [15] 5.28 µM | [16] 1.59 µM | [17] 10.9 µM | [18] 3.43 µM | [19] 1.71 µM

CC(C)(C)c1cc(COc2cc(COc3ccc(-c4c5c(nc6c4CCc4ccc(-c7c8ccccc8nc8ccccc78)cc4-6)-c4cc(-c6c7ccccc7nc7ccccc67)ccc4CC5)cc3)cc(OCc3cc(C(C)(C)C)cc(C(C)(C)C)c3)c2)cc(C(C)(C)C)c1
inactive: [1] > 100 µM | [2] > 100 µM | [3] > 100 µM | [4] > 100 µM | [6] > 100 µM | [7] > 100 µM | [20] > 100 µM | [8] > 100 µM | [9] > 100 µM | [10] > 100 µM | [11] > 100 µM | [12] > 100 µM | [13] > 100 µM | [16] > 100 µM | [17] > 100 µM | [18] > 100 µM | [19] > 100 µM

Oc1ccc(SCc2ccc(NCc3ccccc3)cc2)cc1
inactive: [1] 29.8 µM | [2] 18.2 µM | [3] 62.8 µM | [4] 21.6 µM | [5] 20 µM | [6] 24.5 µM | [7] 31 µM | [8] 22.1 µM | [9] 24.4 µM | [10] 27.2 µM | [11] 30.3 µM | [12] 32 µM | [13] 24.5 µM | [14] 36.6 µM | [15] 36.4 µM | [16] 19.4 µM | [17] 20.7 µM | [18] 31.8 µM | [19] 46.6 µM
